A word on the half-life: it is the time needed for the level to fall by half in the phase considered. The low end stands for fast loss, the high end for slow loss.

These results are taken from US5795882A, “Method of treating prostatic diseases using delayed and/or sustained release vitamin D formulations” (Bone Care International, Inc., priority 1996, dated 1998).

In one data set the test system is luteinizing hormone (LH). Particulars: cited from earlier work.
The next data set concerns the target T1, prostate VDR (Homo sapiens, UniProt P11473).
T1 sequence (P11473 1-427): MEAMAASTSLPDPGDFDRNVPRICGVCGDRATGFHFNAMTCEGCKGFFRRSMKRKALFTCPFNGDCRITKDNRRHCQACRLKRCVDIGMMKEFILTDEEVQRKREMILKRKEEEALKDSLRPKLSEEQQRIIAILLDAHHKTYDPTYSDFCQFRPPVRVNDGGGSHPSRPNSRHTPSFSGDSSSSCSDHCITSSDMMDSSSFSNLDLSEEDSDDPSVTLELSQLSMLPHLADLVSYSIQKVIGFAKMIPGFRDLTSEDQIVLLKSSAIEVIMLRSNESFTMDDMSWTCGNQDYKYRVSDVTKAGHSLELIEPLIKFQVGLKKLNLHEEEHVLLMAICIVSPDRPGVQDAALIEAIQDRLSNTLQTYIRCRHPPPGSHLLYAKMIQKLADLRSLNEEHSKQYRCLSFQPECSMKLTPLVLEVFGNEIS
Put plainly: Prostate cell VDR binding. To be noted: 0.01-100 nM versus 1 nM 3H-1α,25-(OH)2 D3, 16-20 hrs, 4° C. Here is the method:
Prostate-derived cell lines are cultured to near confluence, washed and harvested by scraping. Cells are washed by centrifugation, and the cell pellet resuspended in a buffered salt solution containing protease inhibitors. The cells are disrupted by sonication while cooling on ice. The supernatant obtained from centrifuging the disrupted cells at 207,000×g for 35 min at 4° C. is assayed for binding. 200 μL of soluble extract, (1-2 mg protein/ml supernatant) is incubated with a 1 nM ^3 H-1α,25-(OH)2 D3 and increasing concentrations of 1α,24-(OH)2 -D2 (0.01-100 nM) for 16-20 hrs at 4° C. Bound and free hormones are separated with hydroxylapatite using standard procedures. Specific binding is calculated by subtracting nonspecific binding obtained in the presence of a 250-fold excess of nonradioactive 1α,25-(OH)2 D3 from the total binding measured.
The procedure of Example 16 is repeated using the active vitamin D analogue 1α,24-dihydroxyvitamin D4, and the specific binding is determined.
The procedure of Example 16 is repeated using the active vitamin D analogue 1α,25-dihydroxyvitamin D4, and the specific binding is determined.

The subject of data set [1] is LNCaP. Put plainly: Inhibition of prostate cell proliferation, LNCaP. Type of data set: cell-based, human. Particulars: 10^-11 to 10^-7 M, 6-7 days. The procedure: (§1) The cell lines, LNCaP and PC-3, which are derived from human prostate adenocarcinoma, are seeded in six-well tissue culture plates at a density of about 50,000 cells/plate. After the cells have attached and stabilized, about 2-3 days, the medium is replenished with medium containing vehicle or the active vitamin D analogue, 1α,24-(OH)2 D2, at concentrations from 10^-11 to 10^-7 M. Medium containing test analogue or vehicle is replaced every three days. After 6-7 days, the medium is removed, and the cells are rinsed, precipitated with cold 5% trichloroacetic acid, and washed with cold ethanol. The cells are solubilized with 0.2N sodium hydroxide, and the amount of DNA determined by standard procedures.
(§2) The procedure of Example 19 is repeated using the active vitamin D analogue 1α,24-(OH)2 D4, and the cell number is determined.
(§3) The procedure of Example 19 is repeated using the active vitamin D analogue 1α,25-(OH)2 D4, and the cell number is determined.

Another data set relates to PC-3. Put plainly: Inhibition of prostate cell proliferation, PC-3. Type of data set: cell-based, human. To be noted: PC-3, 10^-11 to 10^-7 M, 6-7 days. The procedure:
as §1, §2, §3

Data set [2] deals with LNCaP. Put plainly: Stimulation of prostate cell differentiation (PSA), LNCaP. The data set is classed as cell-based, human. To be noted: 10^-11 to 10^-7 M, 6-7 days. Here is the method: Using the techniques of Skowronski et al., 132 Endocrinology (1993) 1952-1960 and 136 Endocrinology (1995) 20-26, both of which are incorporated herein by reference, cells of the cell line, LNCaP, which is derived from a human metastatic prostate adenocarcinoma and known to express PSA, are seeded in six-well tissue culture plates at a density of about 50,000 cells/plate. After the cells have attached and stabilized, about 2-3 days, the medium is replenished with medium containing vehicle or the active vitamin D analogue, 1α,24-(OH)2 D2, at concentrations from 10^-11 to 10^-7 M. After 6-7 days, the medium is removed and stored at -20° C. for prostate specific antigen (PSA) analysis.
The cells are rinsed, precipitated, and the amount of DNA determined by standard procedures. The cells are resuspended, and the cell number determined. PSA is measured by standard known methods.
The procedure of Example 22 is repeated except the active vitamin D analogue is 1α,24-(OH)2 D4.
The procedure of Example 22 is repeated except the active vitamin D analogue is 1α,25-(OH)2 D4.

The nature of data set [3]: Comparison of oral bioavailability in rachitic rats (Example 5). To be noted: rat, in vivo, 0.0015 mg/kg, 12 h after single oral dose 0.255 μg (approximately 1.5 μg/kg) in fractionated coconut oil, n=6, ± SD, ** p < 0.01 relative to 1α,25(OH)2 D3, read-out: Serum 1α,25-(OH)2 D3. Type of data set: in vivo, rat. Here is the method:
Three-week-old rats were maintained on a vitamin D-deficient diet containing normal levels of calcium and phosphorus for 3-6 weeks until marked hypocalcemia was observed. […] A control group received only the vehicle. For all treatment groups, blood was obtained at 12 hours postdosing, and analyzed for serum levels of the vitamin form.

The test system of a further data set is leukemia cells. Particulars: by inducing differentiation to nonmalignant macrophages; cited from earlier work.
For data set [4] the following is noted: in vivo; cited from earlier work.
The subject of the next data set is malignant cells. Particulars: cited from earlier work.
Data set [5] concerns prostate cancer cell lines. Particulars: cited from earlier work.
Data set [6] can be described thus: In vitro thermal conversion of 1α-hydroxyprevitamin D to 1α-hydroxyvitamin D. Particulars: in ethanol, 37° C. Type of data set: physicochemical. The procedure: A series of experiments were conducted which address the in vitro conversion of previtamin to vitamin for three 1α-hydroxyprevitamin D's: 1α-hydroxyprevitamin D2, 1α,24-dihydroxyprevitamin D2 and 1α-hydroxyprevitamin D3. Each 1α-hydroxyprevitamin D was dissolved in ethanol, incubated at 37° C. in a water bath, and samples taken at two-hour intervals. An analytical HPLC separation was performed on each sample to quantify the thermal conversion of the previtamin to the vitamin form. The data collected were normalized to account for the presence of any vitamin form in the initial formulation (≤10%). The results are presented in FIG. 1 which is a plot of % previtamin versus time in hours. Linear regression lines were generated for each previtamin.

Another data set addresses T2, Vitamin D Receptor (Homo sapiens, UniProt P11473).
T2 sequence (P11473 1-427): T1 sequence (P11473 1-427)
Kind of data set: VDR competitive binding assay (Examples 6-8). To be noted: in words; Examples 7 and 8 versus the vitamin form.

Structures are written as SMILES.

Regarding `CC/C(=C(/CC)c1ccc(O)cc1)c1ccc(O)cc1` [diethylstilbestrol], in the data set on luteinizing hormone (LH) (in vivo), the cardiovascular profile result is listed as “poor cardiovascular profile” and the “inhibition of the release of luteinizing hormone from the pituitary gland” value was “potent inhibitors of the release from the pituitary gland of luteinizing hormone”. The “dose achieving maximum suppression of plasma testosterone” value in the data set with luteinizing hormone (LH) (men) is recorded as 3 mg/day.
Take `C=C1/C(=C\C=C2/CCC[C@]3(C)[C@@H]([C@H](C)CCC(C)(O)C(C)C)CC[C@@H]23)C[C@@H](O)C[C@@H]1O` (stereo partly drawn) [1α,24-(OH)2 D4, 1α,24-dihydroxyvitamin D4]: the “affinity for prostate VDR” value at prostate VDR is listed as “strong affinity for prostate VDR”. Also, the “number of cells versus control cultures” value in the data set with LNCaP [1] and in the data set on PC-3 was “significantly fewer cells than the control cultures” in each case. Moreover, in the data set on LNCaP [2], the “PSA (mass of PSA/cell) versus control cultures” value was “significantly more PSA than control cultures”.
With `C=C1/C(=C\C=C2/CCC[C@]3(C)[C@@H]([C@H](C)CCCC(C)(C)O)CC[C@@H]23)C[C@@H](O)C[C@@H]1O` [1α,25-(OH)2 D3, 1α,25-dihydroxyvitamin D3], the concentration at 12 h in data set [3] was 0.327 ± 0.192 ng/mL. In addition, the antileukemic activity result with leukemia cells is reported as “potent antileukemic activity”. In addition, in data set [4], the “risk of hypercalcemia limiting clinical use as anti-cancer agent” value is “precluded, or severely limited, by the risk of hypercalcemia”. The “growth and differentiation of malignant cells” value in the data set on malignant cells is “regulate growth and promote the differentiation of many malignant cells”. In addition, in data set [5], the “antiproliferative and differentiating actions” value was “Antiproliferative and differentiating actions”.
In the case of `C=C1/C(=C\C=C2/CCC[C@]3(C)[C@@H]([C@H](C)CC[C@H](C)C(C)(C)O)CC[C@@H]23)C[C@@H](O)C[C@@H]1O` [1α,25-(OH)2 D4, 1α,25-dihydroxyvitamin D4], the “affinity for prostate VDR” value at prostate VDR is “strong affinity for prostate VDR”. The “number of cells versus control cultures” value in the data set on LNCaP [1] and with PC-3 was “significantly fewer cells than the control cultures” throughout. The “PSA (mass of PSA/cell) versus control cultures” value in the data set with LNCaP [2] was “significantly more PSA than control cultures”.
For the compound `C=C1/C(=C\C=C2/CCC[C@]3(C)[C@@H]([C@H](C)/C=C/C(C)(O)C(C)C)CC[C@@H]23)C[C@@H](O)C[C@@H]1O` (stereo partly drawn) [1α,24-(OH)2 D2, 1α,24-dihydroxyvitamin D2], at prostate VDR, the “affinity for prostate VDR” value was “strong affinity for prostate VDR”. Also, the “number of cells versus control cultures” value in the data set with LNCaP [1] and in the data set on PC-3 was “significantly fewer cells than the control cultures” each time. For the same compound, in the data set on LNCaP [2], the “PSA (mass of PSA/cell) versus control cultures” value was “significantly more PSA than control cultures”.
In data set [6], `CC1=C(/C=C\C2=CCC[C@]3(C)[C@@H]([C@H](C)/C=C/[C@H](C)C(C)C)CC[C@@H]23)C[C@@H](O)C[C@@H]1O` [1α-(OH)preD2, 1α-hydroxyprevitamin D2] showed a half-life of 12.9 h.
Take `CC1=C(/C=C\C2=CCC[C@]3(C)[C@@H]([C@H](C)CCC(C)(O)C(C)C)CC[C@@H]23)C[C@@H](O)C[C@@H]1O` (stereo partly drawn) [1α,24-(OH)2 preD4, 1α,24-dihydroxyprevitamin D4]: the VDR binding affinity result on Vitamin D Receptor is reported as “substantially less affinity for the receptor than does its vitamin form”.
Regarding `C=C1/C(=C\C=C2/CCC[C@]3(C)[C@@H]([C@H](C)CCCC(C)C)CC[C@@H]23)C[C@@H](O)C[C@@H]1O` [1α-(OH)D3, 1α-hydroxyvitamin D3], the antileukemic activity result in the data set with leukemia cells is given as “potent antileukemic activity”.
